Experimental data taken from the NIST ThermoML archive (doi:10.1021/je100522z).
Where “and” joins values, the source holds several entries; their conditions need not be identical. Equal entries are not always repeated.

What was measured:
[1] = molar heat capacity at constant pressure; settings: 101.33 kPa, Liquid, Small sample (50 mg) DSC
[2] = 101.33 kPa, Liquid
[3] = excess molar enthalpy (molar enthalpy of mixing); xn = mol fraction of the nth substance listed; settings: 101.3 kPa, Liquid, Calvet calorimetry

CCn1cc[n+](C)c1.COS(=O)(=O)[O-] [1-ethyl-3-methylimidazolium methylsulfate]
Settings | mass density, [2] [kg/m3] | molar heat capacity at constant pressure, [1] [J/K/mol]
283.15 K | – | 324
293.15 K | 1291.15 | 330
298.15 K | 1287.75 | –
303.15 K | 1284.37 | 332
313.15 K | 1277.61 | 337
323.15 K | 1270.87 | 343
333.15 K | 1264.22 | 347
343.15 K | 1257.72 | 354

CCn1cc[n+](C)c1.O=S(=O)([O-])O [1-ethyl-3-methylimidazolium hydrogen sulfate]
Settings | mass density, [2] [kg/m3] | molar heat capacity at constant pressure, [1] [J/K/mol]
283.15 K | – | 290
293.15 K | 1369.28 | 294
298.15 K | 1365.79 | –
303.15 K | 1362.63 | 297
313.15 K | 1356.27 | 302
323.15 K | 1350.14 | 306
333.15 K | 1344.38 | 313
343.15 K | 1338.46 | 324

CCn1cc[n+](C)c1.N#C[S-] [1-ethyl-3-methylimidazolium thiocyanate]
Settings | mass density, [2] [kg/m3] | molar heat capacity at constant pressure, [1] [J/K/mol]
283.15 K | – | 285
293.15 K | 1119.02 | 287
298.15 K | 1115.96 | –
303.15 K | 1112.91 | 288
313.15 K | 1106.85 | 290
323.15 K | 1100.85 | 293
333.15 K | 1094.91 | 296
343.15 K | 1089.06 | 300

CCOP(=O)([O-])OCC.CCn1cc[n+](C)c1 [1-ethyl-3-methylimidazolium diethyl phosphate]
Settings | mass density, [2] [kg/m3] | molar heat capacity at constant pressure, [1] [J/K/mol]
283.15 K | – | 517
293.15 K | 1148.92 | 528
298.15 K | 1145.47 | –
303.15 K | 1142.03 | 533
313.15 K | 1135.19 | 540
323.15 K | 1128.57 | 545
333.15 K | 1121.94 | 547
343.15 K | 1115.36 | 557

C[n+]1ccn(CCO)c1.O=C([O-])C(F)(F)F
Settings | mass density, [2] [kg/m3] | molar heat capacity at constant pressure, [1] [J/K/mol]
283.15 K | – | 362
293.15 K | 1370.39 | 367
298.15 K | 1366.36 | –
303.15 K | 1362.51 | 371
313.15 K | 1354.8 | 376
323.15 K | 1346.98 | 381
333.15 K | 1339.46 | 387
343.15 K | 1331.98 | 394

CCn1cc[n+](C)c1.CS(=O)(=O)[O-] [1-ethyl-3-methylimidazolium methanesulfonate]
Settings | mass density, [2] [kg/m3] | molar heat capacity at constant pressure, [1] [J/K/mol]
283.15 K | – | 327
293.15 K | 1247.31 | 327
298.15 K | 1243.83 | –
303.15 K | 1240.45 | 330
313.15 K | 1233.48 | 334
323.15 K | 1227.03 | 339
333.15 K | 1220.33 | 344
343.15 K | 1213.79 | 350

CCCCCCn1cc[n+](C)c1.O=S(=O)([O-])C(F)(F)F [1-hexyl-3-methylimidazolium trifluoromethanesulfonate] + O
[3]
Settings | excess molar enthalpy
313.12 K, x2 = 0.3964 | 0.325 kcal/mol
313.12 K, x2 = 0.3978 | 0.325 kcal/mol
313.12 K, x2 = 0.6294 | 0.387 kcal/mol
313.12 K, x2 = 0.6334 | 0.387 kcal/mol
313.12 K, x2 = 0.8633 | 0.174 kcal/mol and 0.172 kcal/mol
333.12 K, x2 = 0.3946 | 0.354 kcal/mol
333.12 K, x2 = 0.3993 | 0.359 kcal/mol
333.12 K, x2 = 0.6304 | 0.449 kcal/mol
333.12 K, x2 = 0.8633 | 0.239 kcal/mol
348.13 K, x2 = 0.3956 | 0.378 kcal/mol
348.13 K, x2 = 0.3977 | 0.382 kcal/mol
348.13 K, x2 = 0.6302 | 0.504 kcal/mol
348.13 K, x2 = 0.635 | 0.504 kcal/mol
348.13 K, x2 = 0.8633 | 0.289 kcal/mol

CCCC[P+](CC)(CCCC)CCCC.CCOP(=O)([O-])OCC [tributylethylphosphonium diethylphosphate] + O
[3]
Settings | excess molar enthalpy [kcal/mol]
313.11 K, x2 = 0.2619 | -0.315
313.11 K, x2 = 0.2622 | -0.318
313.11 K, x2 = 0.5134 | -0.619
313.11 K, x2 = 0.5174 | -0.624
313.11 K, x2 = 0.762 | -0.696
313.11 K, x2 = 0.7628 | -0.696
333.11 K, x2 = 0.2606 | -0.284
333.11 K, x2 = 0.2633 | -0.289
333.11 K, x2 = 0.5116 | -0.552
333.11 K, x2 = 0.5118 | -0.554
333.11 K, x2 = 0.7594 | -0.619
333.11 K, x2 = 0.7601 | -0.621
348.11 K, x2 = 0.2623 | -0.27
348.11 K, x2 = 0.2642 | -0.272
348.11 K, x2 = 0.5185 | -0.511
348.11 K, x2 = 0.5213 | -0.514
348.11 K, x2 = 0.7613 | -0.554
348.11 K, x2 = 0.7635 | -0.554

CCn1cc[n+](C)c1.N#C[S-] [1-ethyl-3-methylimidazolium thiocyanate] + O
[3]
Settings | excess molar enthalpy [kcal/mol]
313.14 K, x2 = 0.1503 | -0.059
313.14 K, x2 = 0.2483 | -0.0865
313.14 K, x2 = 0.2501 | -0.0868
313.14 K, x2 = 0.498 | -0.101
313.14 K, x2 = 0.4996 | -0.101
313.14 K, x2 = 0.7488 | -0.0261
313.14 K, x2 = 0.7493 | -0.0258
313.14 K, x2 = 0.8994 | 0.0433
313.14 K, x2 = 0.8996 | 0.043
333.14 K, x2 = 0.1477 | -0.0614
333.14 K, x2 = 0.1479 | -0.0609
333.14 K, x2 = 0.25 | -0.0887
333.14 K, x2 = 0.2506 | -0.0889
333.14 K, x2 = 0.5014 | -0.0939
333.14 K, x2 = 0.5016 | -0.0942
333.14 K, x2 = 0.6521 | -0.0483
333.14 K, x2 = 0.6524 | -0.0483
333.14 K, x2 = 0.8965 | 0.0619
333.14 K, x2 = 0.898 | 0.0621
348.13 K, x2 = 0.1467 | -0.0629
348.13 K, x2 = 0.1516 | -0.0652
348.13 K, x2 = 0.2472 | -0.0884
348.13 K, x2 = 0.251 | -0.0877
348.13 K, x2 = 0.499 | -0.087
348.13 K, x2 = 0.4992 | -0.0868
348.13 K, x2 = 0.6015 | -0.0552
348.13 K, x2 = 0.6029 | -0.0545
348.13 K, x2 = 0.8992 | 0.082
348.13 K, x2 = 0.8993 | 0.082

CCCCCCn1cc[n+](C)c1.O=S(=O)([O-])C(F)(F)F [1-hexyl-3-methylimidazolium trifluoromethanesulfonate]
[1]
Settings | molar heat capacity at constant pressure [J/K/mol]
283.15 K | 484
293.15 K | 493
303.15 K | 500
313.15 K | 506
323.15 K | 513
333.15 K | 516
343.15 K | 522

CCCC[P+](CC)(CCCC)CCCC.CCOP(=O)([O-])OCC [tributylethylphosphonium diethylphosphate]
Settings | mass density, [2] [kg/m3] | molar heat capacity at constant pressure, [1] [J/K/mol]
283.15 K | – | 683
293.15 K | 1010.74 | 706
298.15 K | 1007.43 | –
303.15 K | 1004.1 | 716
313.15 K | 997.42 | 728
323.15 K | 990.87 | 739
333.15 K | 984.33 | 753
343.15 K | 977.79 | 768

CCOP(=O)([O-])OCC.CCn1cc[n+](C)c1 [1-ethyl-3-methylimidazolium diethyl phosphate] + O
[3]
Settings | excess molar enthalpy [kcal/mol]
313.13 K, x2 = 0.2497 | -0.813
313.13 K, x2 = 0.2506 | -0.815
313.13 K, x2 = 0.5025 | -1.34
313.13 K, x2 = 0.5036 | -1.34
313.13 K, x2 = 0.7514 | -1.25
313.13 K, x2 = 0.7538 | -1.25
333.13 K, x2 = 0.2456 | -0.786
333.13 K, x2 = 0.2473 | -0.786
333.13 K, x2 = 0.4977 | -1.31
333.13 K, x2 = 0.508 | -1.32
333.13 K, x2 = 0.7491 | -1.23
333.13 K, x2 = 0.7512 | -1.22
348.12 K, x2 = 0.2452 | -0.779
348.12 K, x2 = 0.2477 | -0.796
348.12 K, x2 = 0.4992 | -1.29
348.12 K, x2 = 0.4996 | -1.29
348.12 K, x2 = 0.7481 | -1.19
348.12 K, x2 = 0.7485 | -1.18
